Assay results reported in patent US5525626A (priority 1989, dated 1996).
pIC50: −log10 of the molar value. Where two headings read alike, the source gives them in different places.

Tests used:
Assay type in all cases: cell-based
CAKI-1 cells = assay: 3H-thymidine assay; conditions: Homo sapiens
Outline: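 Antiproliferative activity against CAKI-1 cells was measured by 3H-thymidine incorporation. After washing in PBS, precipitated radioactivity was solubilized in 0.3M NaOH and counted. Incorporation in substance-treated cells was compared with untreated controls to assess growth inhibition, and the substance concentration giving 50% inhibition of 3H-thymidine insertion was found.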

[1] = tested on: MCF-7 breast cancer cells; assay: 3H-thymidine assay; conditions: Homo sapiens
Outline: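 MCF-7 cells were plated at 10^4 cells per well in 24-well plates and, once roughly half-confluent after approximately 48 hours, exposed to compound-containing medium. Growth inhibition was assessed from 3H-thymidine insertion relative to untreated controls: cultures were washed twice in ice-cold PBS, acid-insoluble label was precipitated with 5% trichloroacetic acid (one hour, 4° C), dissolved in 0.3M NaOH and counted. The concentration giving 50% inhibition of insertion was determined.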

CAKI-2 cells = assay: 3H-thymidine assay; conditions: Homo sapiens
Procedure: The cell lines were cultivated as indicated in Example 1.
The antiproliferative effect of the 1,2-benzopyrone derivatives according to the invention on the tumor cell lines in each case was shown with the help of the ^3 H-thymidine insertion and with reference to growth curves.
In a 24-well-plate, in each case 10^4 cells of the line to be investigated were inoculated per well. Approximately 48 hours later the cells were half-confluent; the medium was then changed and replaced by a medium containing the active substance in question (cf Table 3). […] Subsequently the cultures were washed twice with ice-cold PBS and the high-molecular-weight ^3 H-radioactivity was precipitated with 5% trichloroacetic acid for one hour at 4° C. After the washing of the cells in PBS the ^3 H-radioactivity was solubilized with 0.3M NaOH and measured in the counter. The growth-inhibition was determined by comparing the thymidine insertion of the cells treated with active substance with untreated cells.
The active substance concentration in each case was so chosen that ^3 H-thymidine insertion was 50% inhibited. The active substance concentrations used under this aspect for the active substances and cell lines in each case are given in table 4 below in μM/ml, […]

HCV cells = assay: 3H-thymidine assay; conditions: for activity at 1 µM / activity at 2 µM / activity at 4 µM / activity at 8 µM / activity at 16 µM / activity at 25 µM / activity at 50 µM / activity at 250 µM / activity at 500 µM: read-out: 3H-thymidine tracer (%) of control; for pIC50: read-out: active substance concentration at which 3H-thymidine insertion was 50% inhibited
[2] = tested on: brain-tumor cells (glioblastoma cells); assay: growth inhibition of brain-tumor cells; conditions: Tables 1 to 3
[3] = CAKI-1, read-out: 3H-thymidine tracer (%) of control
[4] = MCF7, read-out: 3H-thymidine tracer (%) of control
[5] = CAKI-2, read-out: 3H-thymidine tracer (%) of control
[6] = CAKI-1, 1 μM/ml, read-out: 3H-thymidine tracer (%) of control
[7] = CAKI-1, 2 μM/ml, read-out: 3H-thymidine tracer (%) of control
[8] = CAKI-1, 4 μM/ml, read-out: 3H-thymidine tracer (%) of control
[9] = CAKI-1, 8 μM/ml, read-out: 3H-thymidine tracer (%) of control
[10] = CAKI-1, 16 μM/ml, read-out: 3H-thymidine tracer (%) of control
[11] = CAKI-1, 25 μM/ml, read-out: 3H-thymidine tracer (%) of control
[12] = CAKI-1, 50 μM/ml, read-out: 3H-thymidine tracer (%) of control
[13] = CAKI-1, 100 μM/ml, read-out: 3H-thymidine tracer (%) of control
[14] = CAKI-1, 150 μM/ml, read-out: 3H-thymidine tracer (%) of control
[15] = CAKI-1, 500 μM/ml, read-out: 3H-thymidine tracer (%) of control
[16] = CAKI-1, Table 4, *: maximum usable dosage, no 50% inhibition, read-out: active substance concentration at which 3H-thymidine insertion was 50% inhibited
[17] = MCF7, 1 μM/ml, read-out: 3H-thymidine tracer (%) of control
[18] = MCF7, 2 μM/ml, read-out: 3H-thymidine tracer (%) of control
[19] = MCF7, 4 μM/ml, read-out: 3H-thymidine tracer (%) of control
[20] = MCF7, 8 μM/ml, read-out: 3H-thymidine tracer (%) of control
[21] = MCF7, 16 μM/ml, read-out: 3H-thymidine tracer (%) of control
[22] = MCF7, 25 μM/ml, read-out: 3H-thymidine tracer (%) of control
[23] = MCF7, 50 μM/ml, read-out: 3H-thymidine tracer (%) of control
[24] = MCF7, 100 μM/ml, read-out: 3H-thymidine tracer (%) of control
[25] = MCF7, 250 μM/ml, read-out: 3H-thymidine tracer (%) of control
[26] = MCF7, 500 μM/ml, read-out: 3H-thymidine tracer (%) of control
[27] = MCF7, Table 4, *: maximum usable dosage, no 50% inhibition, read-out: active substance concentration at which 3H-thymidine insertion was 50% inhibited
[28] = CAKI-2, 1 μM/ml, read-out: 3H-thymidine tracer (%) of control
[29] = CAKI-2, 2 μM/ml, read-out: 3H-thymidine tracer (%) of control
[30] = CAKI-2, 4 μM/ml, read-out: 3H-thymidine tracer (%) of control
[31] = CAKI-2, 8 μM/ml, read-out: 3H-thymidine tracer (%) of control
[32] = CAKI-2, 16 μM/ml, read-out: 3H-thymidine tracer (%) of control
[33] = CAKI-2, 25 μM/ml, read-out: 3H-thymidine tracer (%) of control
[34] = CAKI-2, 50 μM/ml, read-out: 3H-thymidine tracer (%) of control
[35] = CAKI-2, 100 μM/ml, read-out: 3H-thymidine tracer (%) of control
[36] = CAKI-2, 150 μM/ml, read-out: 3H-thymidine tracer (%) of control
[37] = CAKI-2, 500 μM/ml, read-out: 3H-thymidine tracer (%) of control
[38] = CAKI-2, Table 4, *: maximum usable dosage, no 50% inhibition, read-out: active substance concentration at which 3H-thymidine insertion was 50% inhibited

## O=c1ccc2cc(O[C@@H]3O[C@H](CO)[C@@H](O)[C@H](O)[C@H]3O)c(O)cc2o1 [Esculin, 6-beta-D-glucopyranosyloxy-7-hydroxy-1,2-benzopyrone]
CAKI-1 cells; [3]
  activity at 1 µM: 100%
  activity at 2 µM: 94%
  activity at 4 µM: 92%
  activity at 8 µM: 83%
  activity at 16 µM: 78%
  activity at 25 µM: 74%
  activity at 50 µM: 65%
  activity at 100 µM: 60%
  activity at 150 µM: 53%
  activity at 500 µM: 47%
CAKI-1 cells; CAKI-1, read-out: active substance concentration at which 3H-thymidine insertion was 50% inhibited
  pIC50: 3.43
[1]; [4]
  activity at 1 µM: 99%
  activity at 2 µM: 91%
  activity at 4 µM: 88%
  activity at 8 µM: 80%
  activity at 16 µM: 71%
  activity at 25 µM: 69%
  activity at 50 µM: 62%
  activity at 100 µM: 51%
  activity at 250 µM: 49%
  activity at 500 µM: 42%
[1]; MCF7, read-out: active substance concentration at which 3H-thymidine insertion was 50% inhibited
  pIC50: < 4.00
CAKI-2 cells; [5]
  activity at 1 µM: 99%
  activity at 2 µM: 96%
  activity at 4 µM: 90%
  activity at 8 µM: 84%
  activity at 16 µM: 73%
  activity at 25 µM: 72%
  activity at 50 µM: 66%
  activity at 100 µM: 50%
  activity at 150 µM: 56%
  activity at 500 µM: 52%
CAKI-2 cells; CAKI-2, read-out: active substance concentration at which 3H-thymidine insertion was 50% inhibited
  pIC50: < 3.30
HCV cells
  activity at 1 µM: 100%
  activity at 2 µM: 98%
  activity at 4 µM: 95%
  activity at 8 µM: 89%
  activity at 16 µM: 86%
  activity at 25 µM: 83%
  activity at 50 µM: 79%
  activity at 250 µM: 76%
  activity at 500 µM: 75%
  pIC50: < 3.30

## COc1cc2ccc(=O)oc2cc1O [Scopoletin, 6-methoxy-7-hydroxy-1,2-benzopyrone]
CAKI-1 cells; [6]
  activity at 1 µM: 100%
CAKI-1 cells; [7]
  activity at 2 µM: 98%
CAKI-1 cells; [8]
  activity at 4 µM: 87%
CAKI-1 cells; [9]
  activity at 8 µM: 81%
CAKI-1 cells; [10]
  activity at 16 µM: 80%
CAKI-1 cells; [11]
  activity at 25 µM: 73%
CAKI-1 cells; [12]
  activity at 50 µM: 69%
CAKI-1 cells; [13]
  activity at 100 µM: 67%
CAKI-1 cells; [14]
  activity at 150 µM: 62%
CAKI-1 cells; [15]
  activity at 500 µM: 55%
CAKI-1 cells; [16]
  pIC50: < 3.30
[1]; [17]
  activity at 1 µM: 100%
[1]; [18]
  activity at 2 µM: 97%
[1]; [19]
  activity at 4 µM: 94%
[1]; [20]
  activity at 8 µM: 86%
[1]; [21]
  activity at 16 µM: 81%
[1]; [22]
  activity at 25 µM: 76%
[1]; [23]
  activity at 50 µM: 73%
[1]; [24]
  activity at 100 µM: 69%
[1]; [25]
  activity at 250 µM: 62%
[1]; [26]
  activity at 500 µM: 54%
[1]; [27]
  pIC50: < 3.30
CAKI-2 cells; [28]
  activity at 1 µM: 99%
CAKI-2 cells; [29]
  activity at 2 µM: 96%
CAKI-2 cells; [30]
  activity at 4 µM: 84%
CAKI-2 cells; [31]
  activity at 8 µM: 80%
CAKI-2 cells; [32]
  activity at 16 µM: 76%
CAKI-2 cells; [33]
  activity at 25 µM: 71%
CAKI-2 cells; [34]
  activity at 50 µM: 66%
CAKI-2 cells; [35]
  activity at 100 µM: 61%
CAKI-2 cells; [36]
  activity at 150 µM: 59%
CAKI-2 cells; [37]
  activity at 500 µM: 53%
CAKI-2 cells; [38]
  pIC50: < 3.30
HCV cells; 1 μM/ml
  activity at 1 µM: 97%
HCV cells; 2 μM/ml
  activity at 2 µM: 90%
HCV cells; 4 μM/ml
  activity at 4 µM: 86%
HCV cells; 8 μM/ml
  activity at 8 µM: 81%
HCV cells; 16 μM/ml
  activity at 16 µM: 77%
HCV cells; 25 μM/ml
  activity at 25 µM: 69%
HCV cells; 50 μM/ml
  activity at 50 µM: 65%
HCV cells; 250 μM/ml
  activity at 250 µM: 60%
HCV cells; 500 μM/ml
  activity at 500 µM: 57%
HCV cells; Table 4, *: maximum usable dosage, no 50% inhibition
  pIC50: < 3.30

## O=c1ccc2cc(O)c(O)cc2o1 [Esculetin, 6,7-hydroxy-1,2-benzopyrone]
CAKI-1 cells; [6]
  activity at 1 µM: 96%
CAKI-1 cells; [7]
  activity at 2 µM: 93%
CAKI-1 cells; [8]
  activity at 4 µM: 88%
CAKI-1 cells; [9]
  activity at 8 µM: 80%
CAKI-1 cells; [10]
  activity at 16 µM: 62%
CAKI-1 cells; [11]
  activity at 25 µM: 58%
CAKI-1 cells; [12]
  activity at 50 µM: 53%
CAKI-1 cells; [13]
  activity at 100 µM: 45%
CAKI-1 cells; [14]
  activity at 150 µM: 40%
CAKI-1 cells; [15]
  activity at 500 µM: 32%
CAKI-1 cells; [16]
  pIC50: 4.30
[1]; [17]
  activity at 1 µM: 100%
[1]; [18]
  activity at 2 µM: 98%
[1]; [19]
  activity at 4 µM: 92%
[1]; [20]
  activity at 8 µM: 85%
[1]; [21]
  activity at 16 µM: 76%
[1]; [22]
  activity at 25 µM: 69%
[1]; [23]
  activity at 50 µM: 64%
[1]; [24]
  activity at 100 µM: 58%
[1]; [25]
  activity at 250 µM: 50%
[1]; [26]
  activity at 500 µM: 42%
[1]; [27]
  pIC50: 3.60
CAKI-2 cells; [28]
  activity at 1 µM: 98%
CAKI-2 cells; [29]
  activity at 2 µM: 94%
CAKI-2 cells; [30]
  activity at 4 µM: 90%
CAKI-2 cells; [31]
  activity at 8 µM: 87%
CAKI-2 cells; [32]
  activity at 16 µM: 82%
CAKI-2 cells; [33]
  activity at 25 µM: 69%
CAKI-2 cells; [34]
  activity at 50 µM: 65%
CAKI-2 cells; [35]
  activity at 100 µM: 54%
CAKI-2 cells; [36]
  activity at 150 µM: 53%
CAKI-2 cells; [37]
  activity at 500 µM: 50%
CAKI-2 cells; [38]
  pIC50: 3.30
HCV cells
  activity at 1 µM: 99%
  activity at 2 µM: 94%
  activity at 4 µM: 87%
  activity at 8 µM: 83%
  activity at 16 µM: 78%
  activity at 25 µM: 76%
  activity at 50 µM: 71%
  activity at 250 µM: 64%
  activity at 500 µM: 62%
  pIC50: < 3.30
[2]
  growth-inhibiting effect on brain-tumor cells: strong growth-inhibiting effect on brain-tumor cells
